Like-named read-outs stand apart in the source and are kept apart here.
Tests used:
[1] = test system: hFIX protein in mouse plasma; experiment: LNP delivery of human FIX mRNA, hFIX protein in mouse plasma by ELISA; assay type: in vivo; settings: for Human Factor IX @ 0.3 mg/kg (ng mL in plasma): 0.3 mg/kg hFIX mRNA LNP; for Human Factor IX @ 0.3 mg/kg (ng mL in plasma) / Human Factor IX @ 1.0 mg/kg (ng mL in plasma): ELISA; for Human Factor IX @ 1.0 mg/kg (ng mL in plasma): 1.0 mg/kg hFIX mRNA LNP
Description: The LNPs with cationic lipids shown in Table 7 are formulated with mRNA coding for human FIX (e.g. TriLink Biotechnologies product L-6110) using the following molar ratio of lipids: 50% lipid/10% distearoylphosphatidylcholine (DSPC)/38.5% Cholesterol/1.5% PEG-lipid as described in EXAMPLE 47. Plasma protein is analyzed by ELISA using a commercially available kit (e.g. Abcam ab108831) as per the suppliers instructions. […] The duration of the hFIX at these levels is ˜15 hours or longer.

[2] = pKa of formulated cationic lipids in lipid nanoparticles (TNS fluorescence assay); assay type: physicochemical
Description: As described elsewhere, the pKa of formulated cationic lipids is correlated with the effectiveness of LNPs for delivery of nucleic acids (see Jayaraman et al, Angewandte Chemie, International Edition (2012), 51(34), 8529-8533; Semple et al, Nature Biotechnology 28, 172-176 (2010)). The preferred range of pKa is ˜5 to ˜7. […] Lipid nanoparticles comprising of cationic lipid/DSPC/cholesterol/PEG-lipid (50/10/38.5/1.5 mol %) in PBS at a concentration of 0.4 mM total lipid are prepared using the in-line process as described in EXAMPLE 47. TNS was prepared as a 100 μM stock solution in distilled water. Vesicles were diluted to 24 μM lipid in 2 mL of buffered solutions containing, 10 mM HEPES, 10 mM MES, 10 mM ammonium acetate, 130 mM NaCl, where the pH ranged from 2.5 to 11. An aliquot of the TNS solution was added to give a final concentration of 1 μM and following vortex mixing fluorescence intensity was measured at room temperature in a SLM Aminco Series 2 Luminescence Spectrophotometer using excitation and emission wavelengths of 321 nm and 445 nm. A sigmoidal best fit analysis was applied to the fluorescence data and the pKa was measured as the pH giving rise to half-maximal fluorescence intensity (see FIG. 2).

[3] = test system: luciferase expression in the liver; experiment: In vivo luciferase mRNA expression rodent model (LNP, liver luciferase); design: species or system C57BL/6 mice; settings: tail vein, liver 4 hours; for Liver Luc @ 0.3 mg/kg (ng luc/g liver): 0.3 mg mRNA/kg; for Liver Luc @ 1.0 mg/kg (ng luc/g liver): 1.0 mg mRNA/kg
Description: Cationic lipid (MC3), DSPC, cholesterol and PEG-lipid were solubilized in ethanol at a molar ratio of 50:10:38.5:1.5. Lipid nanoparticles (LNP) were prepared at a total lipid to mRNA weight ratio of approximately 10:1 to 30:1. Briefly, the mRNA was diluted to 0.2 mg/mL in 10 to 50 mM citrate buffer, pH 4. Syringe pumps were used to mix the ethanolic lipid solution with the mRNA aqueous solution at a ratio of about 1:5 to 1:3 (vol/vol) with total flow rates above 15 ml/min. The ethanol was then removed and the external buffer replaced with PBS by dialysis. Finally, the lipid nanoparticles were filtered through a 0.2 μm pore sterile filter. Lipid nanoparticle particle size was 70-90 nm diameter as determined by quasi-elastic light scattering using a Nicomp 370 submicron particle sizer (Santa Barbara, Calif.).
Studies were performed in 6-8 week old female C57BL/6 mice (Charles River) according to guidelines established by an institutional animal care committee (ACC) and the Canadian Council on Animal Care (CCAC). Varying doses of mRNA-lipid nanoparticle were systemically administered by tail vein injection and animals euthanized at specific time points (1, 2, 4, 8 and 24 hrs) post-administration. Liver and spleen were collected in pre-weighted tubes, weights determined, immediately snap frozen in liquid nitrogen and stored at −80° C. until processing for analysis.
For liver, approximately 50 mg was dissected for analyses in a 2 mL FastPrep tubes (MP Biomedicals, Solon Ohio). ¼″ ceramic sphere (MP Biomedicals) was added to each tube and 500 μL of Glo Lysis Buffer—GLB (Promega, Madison Wis.) equilibrated to room temperature was added to liver tissue. Liver tissues were homogenized with the FastPrep24 instrument (MP Biomedicals) at 2×6.0 m/s for 15 seconds. Homogenate was incubated at room temperature for 5 minutes prior to a 1:4 dilution in GLB and assessed using SteadyGlo Luciferase assay system (Promega). Specifically, 50 μL of diluted tissue homogenate was reacted with 50 μL of SteadyGlo substrate, shaken for 10 seconds followed by 5 minute incubation and then quantitated using a CentroXS^3 LB 960 luminometer (Berthold Technologies, Germany). The amount of protein assayed was determined by using the BCA protein assay kit (Pierce, Rockford Ill.). Relative luminescence units (RLU) were then normalized to total ug protein assayed. To convert RLU to ng luciferase a standard curve was generated with QuantiLum Recombinant Luciferase (Promega). Based in the data provided in FIG. 1, the four-hour time point was chosen for efficacy evaluation of the lipid formulations (see EXAMPLE 48).
The FLuc mRNA (L-6107) from Trilink Biotechnologies will express a luciferase protein, originally isolated from the firefly, Photinus pyralis. FLuc is commonly used in mammalian cell culture to measure both gene expression and cell viability. It emits bioluminescence in the presence of the substrate, luciferin. This capped and polyadenylated mRNA is fully substituted with 5-methylcytidine and pseudouridine.
The cationic lipids shown in Table 2 have previously been tested with nucleic acids. For comparative purposes, these lipids were also used to formulate lipid nanoparticles containing the FLuc mRNA (L-6107) using an in line mixing method, as described in EXAMPLE 47 and in PCT/US10/22614, which is hereby incorporated by reference in its entirety. Lipid nanoparticles were formulated using the following molar ratio: 50% Cationic lipid/10% distearoylphosphatidylcholine (DSPC)/38.5% Cholesterol/1.5% PEG lipid (“PEG-DMG”, i.e., (1-(monomethoxy-polyethyleneglycol)-2,3-dimyristoylglycerol, with an average PEG molecular weight of 2000). Relative activity was determined by measuring luciferase expression in the liver 4 hours following administration via tail vein injection as described in EXAMPLE 47. The activity was compared at a dose of 0.3 and 1.0 mg mRNA/kg and expressed as ng luciferase/g liver measured 4 hours after administration, as described in EXAMPLE 47. […]

[4] = Table 3, in LNP cationic lipid/DSPC/cholesterol/PEG-lipid 50/10/38.5/1.5 mol %, read-out: pKa
[5] = Table 3, LNP with 1.5% PEG-DMA (42-6), FLuc mRNA
[6] = Table 5, LNP with 1.5% PEG-lipid (42-6)

Row | pKa [2, 4] | SMILES | Liver Luc @ 0.3 mg/kg (ng luc/g liver) [3, 5] | Liver Luc @ 1.0 mg/kg (ng luc/g liver) [3, 5] | also measured
1 | 6.28 | CCCCCCCCC(CCCCCC)C(=O)OCCCCCCN(CCCCCCOC(=O)C(CCCCCC)CCCCCCCC)CCN(C)C (stereo not drawn) [Compound 5] | 1571 ± 414 ng luc/g liver | 12900 ± 4083 ng luc/g liver | Human Factor IX @ 0.3 mg/kg (ng mL in plasma) [1]: 1097 ± 357 ng·mL; Human Factor IX @ 1.0 mg/kg (ng mL in plasma) [1]: 4556 ± 686 ng·mL; measured levels of hFIX expression (assessment) ([1]; hFIX mRNA LNPs): clinically relevant; pKa ([2]; Table 5, in LNP): 6.28; Liver Luc @ 0.3 mg/kg (ng luc/g liver) [3, 6]: 1571 ± 414 ng luc/g liver; Liver Luc @ 1.0 mg/kg (ng luc/g liver) [3, 6]: 12900 ± 4083 ng luc/g liver
2 | 6.2 | CCCCCCCCC(CCCCCC)COC(=O)CCCCCCCCCN(CCCCCCCCCC(=O)OCC(CCCCCC)CCCCCCCC)CCN(C)C (stereo not drawn) [Compound 25] | 901 ± 173 ng luc/g liver | 6223 ± 1714 ng luc/g liver | –
3 | 6.3 | CCCCCCCCCCC(CCCCCCCC)COC(=O)CCCCCN(CCCCCC(=O)OCC(CCCCCCCC)CCCCCCCCCC)CCN(C)C (stereo not drawn) [Compound 27] | 724 ± 144 ng luc/g liver | 6636 ± 1230 ng luc/g liver | –
4 | 6.2 | CCCCCCCCCCC(CCCCCCCC)COC(=O)CCCCCCCN(CCCCCCCC(=O)OCC(CCCCCCCC)CCCCCCCCCC)CCN(C)C (stereo not drawn) [Compound 28] | 522 ± 86 ng luc/g liver | 4582 ± 1291 ng luc/g liver | –
5 | 6.22 | CCCCCCC(CCCCCC)OC(=O)CCCCCCCCCN(CCCCCCCCCC(=O)OC(CCCCCC)CCCCCC)CCN(C)C [Compound 29] | 1303 ± 445 ng luc/g liver | 9750 ± 3519 ng luc/g liver | –
6 | 6.24 | CCCCCCC(CCCC)C(=O)OCCCCCCCCCN(CCCCCCCCCOC(=O)C(CCCC)CCCCCC)CCN(C)C (stereo not drawn) [Compound 38] | 977 ± 336 ng luc/g liver | 7135 ± 1020 ng luc/g liver | –
7 | 5.82 | CCCCCCCCCCCCC(CCCCCCCCCC)C(=O)OCCCCCCN(CCCCCCOC(=O)C(CCCCCCCCCC)CCCCCCCCCCCC)CCN(C)C (stereo not drawn) [Compound 39] | 36 ± 13 ng luc/g liver | 326 ± 81 ng luc/g liver | –
8 | 6.38 | CCCCCCCCCCC(CCCCCCCC)C(=O)OCCCCCCCCCN(CCCCCCCCCOC(=O)C(CCCCCCCC)CCCCCCCCCC)CCN(C)C (stereo not drawn) [Compound 40] | 236 ± 71 ng luc/g liver | 1704 ± 571 ng luc/g liver | –
9 | 5.91 | CCCCCCCCCCCCC(CCCCCCCCCC)C(=O)OCCCCCCCCCN(CCCCCCCCCOC(=O)C(CCCCCCCCCC)CCCCCCCCCCCC)CCN(C)C (stereo not drawn) [Compound 41] | 63 ± 27 ng luc/g liver | 799 ± 619 ng luc/g liver | –

More lines, now with the values behind:

Row | SMILES | pKa [2, 4] | Liver Luc @ 0.3 mg/kg (ng luc/g liver) [3, 5] | Liver Luc @ 1.0 mg/kg (ng luc/g liver) [3, 5] | also measured
10 | CCCCCCCCCCC(C)OC(=O)CCCCCCCCCN(CCCCCCCCCC(=O)OC(C)CCCCCCCCCC)CCN(C)C (stereo not drawn) [Compound 24] | 6.28 | 1094 ± 180 ng luc/g liver | 6928 ± 1015 ng luc/g liver | –
11 | CCCCC/C=C\C/C=C\CCCCCCCCOC(=O)CCCCCN(CCCCCC(=O)OCCCCCCCC/C=C\C/C=C\CCCCC)CCN(C)C [Compound 26] | 6.89 | 30 ± 5 ng luc/g liver | 55 ± 0.8 ng luc/g liver | –
12 | CCCCCCCCCCC(CCCCCCCC)COC(=O)CCCCCN(CCCCCC(=O)OCC(CCCCCCCC)CCCCCCCCCC)CCN1CCCC1 (stereo not drawn) [Compound 31] | 6.33 | 344 ± 160 ng luc/g liver | 4103 ± 1073 ng luc/g liver | –
13 | CCCCCCCCC(CCCCCC)COC(=O)CCCCCN(CCCCCC(=O)OCC(CCCCCC)CCCCCCCC)CCN1CCCC1 (stereo not drawn) [Compound 32] | 6.47 | 626 ± 299 ng luc/g liver | 12266 ± 192 ng luc/g liver | –
14 | CCCCCCCCC(CCCCCC)COC(=O)CCCCCN(CCCCCC(=O)OCC(CCCCCC)CCCCCCCC)CCN(C)CC (stereo not drawn) [Compound 33] | 6.27 | 711 ± 272 ng luc/g liver | 4448 ± 512 ng luc/g liver | –
15 | CC(C)=CCCC(C)CC(=O)OCCCCCCCCCCCCN(CCCCCCCCCCCCOC(=O)CC(C)CCC=C(C)C)CCN(C)C (stereo not drawn) [Compound 35] | 6.21 | 35 ± 15 ng luc/g liver | 101 ± 69 ng luc/g liver | –
16 | CCCCC/C=C\C/C=C\CCCCCCCCC(CCCCCCCC/C=C\C/C=C\CCCCC)OC(=O)CCCN(C)C [MC3, reference compound] | – | – | – | Human Factor IX @ 0.3 mg/kg (ng mL in plasma) [1]: 336 ± 21 ng·mL; Human Factor IX @ 1.0 mg/kg (ng mL in plasma) [1]: 1154 ± 25 ng·mL; pKa ([2]; Table 5, in LNP, read-out: pKa): 6.09

From patent publication US10723692B2, “Lipids and lipid nanoparticle formulations for delivery of nucleic acids” (Acuitas Therapeutics, Inc., priority 2014, dated 2020)
